What was measured:
[1] = system: HUVEC primary endothelial cells; assay: HUVEC proliferation assay (CyQUANT Direct); format: cell-based; conditions: Homo sapiens, 72 h, 3 days incubation
Experimental: HUVEC Proliferation Assay
Proliferation of HUVEC primary endothelial cells was used as cell-based mechanistical assay.^25 Applying the CyQUANT@ Direct Cell Proliferation Assay (Invitrogen C35011) which is based on a cell-permeant fluorescent DNA-binding dye, DNA content is used as a direct measure for cell number. Pooled HUVEC cells (Promocell C-12203) are cultivated in the medium supplied by Promocell (Cat No C-22020) for maximum 4 passages. For the assay 500 cells/well are seeded into black 384-well culture plates with clear bottom in 70 μl culture medium and incubated for 6 hours at 37° C., 5% CO2. 10 μl prediluted test compounds are added and cells incubated for 3 days at 37° C., 5% CO2 before measurement of DNA content. CyQUANT detection reagent is prepared according to the manufacturers protocol, 20 μl/well added and incubated at 37° C., 5% CO2 for at least 1 h before measurement of fluorescence at Envision multimode reader (Perkin-Elmer, Waltham) with excitation 480 nm and emission 535 nm (bottom read mode). The assay is performed as dose response with 10 compound dilutions. Inhibitory values (IC50) were determined using the program ASSAY ANALYZER® from GeneData (Basel, Switzerland).

[2] = biological target: T1, MetAP-2 (Homo sapiens, UniProt P50579); assay: Biochemical activity testing of MetAP-2 (enzyme-coupled assay, Met-Ala-Ser substrate); design: N-terminal His tag human rec MetAP2 (prepared in house, AA 2-478, final concentration (fc) 123 nM); His tag (N); TEV cleavage site (N); made in house
Experimental: Biochemical Activity Testing of MetAP-2
MetAP-2 activity was determined by an enzyme-coupled assay using the tripeptide Met-Ala-Ser (MAS) as substrate and recombinant human MetAP-2 (His-Tev-MetAP-2, prepared at Merck). The released methionine is converted by L-amino acid oxidase (AAO) to oxidized Methionine and hydrogen peroxide is released. In a second step horse radish peroxidase catalyzes the oxidation of the leuko dye dianisidine to oxidized dianisidine using hydrogen peroxide as co-substrate. The produced dianisidine ox was detected photometrically as increase in absorbance at 450 nm. Met-AP2 activity was determined in a kinetic measurement mode. The release of one molecule methionine corresponds to the production of one molecule dianisidine ox. The MetAP2 enzymatic activity is directly corresponding to the increase in absorbance per time.
In detail, the assay was performed in 384 well microtiter plate (Greiner 78110 MTP, transparent) in a total reaction volume of 50 μl at 22° C. 0.35 μg of N-terminal His tag human rec MetAP2 (prepared in house, AA 2-478, final concentration (fc) 123 nM), 1 unit horse radish Peroxidase (Roche, Mannheim), 0.02 unit L-amino acid oxidase (Merck, Darmstadt), 0.6 mM dianisidine (Merck, Darmstadt, dissolved in 50 mM HCl, 10% DMSO) were incubated in the absence or presence of the test compound (10 dilution concentrations) in 100 mM Hepes, 50 mM NaCl, 50 μM MnCl2 at pH 7.0 for 15 min at 22° C. The reaction was started by the addition of 500 μM (fc) MAS peptide (Merck, Darmstadt). After mixing the first absorbance measurement was performed on an Envision multimode reader (Perkin-Elmer, Waltham) at wavelength of 450 nm. The reaction was incubated at 22° C. for additional 45 min and the second absorbance measurement was performed. The increase of absorbance per time was determined. The control value used was the inhibitor-free reaction with 0.5% DMSO (fc). As pharmacological inhibitor control Fumagillin (Merck, Darmstadt) in a final concentration of 5 μM was used. The inhibitory values (IC50) were determined using the program ASSAY ANALYZER® from GeneData (Basel, Switzerland).
Target sequence in this assay (P50579 2-478): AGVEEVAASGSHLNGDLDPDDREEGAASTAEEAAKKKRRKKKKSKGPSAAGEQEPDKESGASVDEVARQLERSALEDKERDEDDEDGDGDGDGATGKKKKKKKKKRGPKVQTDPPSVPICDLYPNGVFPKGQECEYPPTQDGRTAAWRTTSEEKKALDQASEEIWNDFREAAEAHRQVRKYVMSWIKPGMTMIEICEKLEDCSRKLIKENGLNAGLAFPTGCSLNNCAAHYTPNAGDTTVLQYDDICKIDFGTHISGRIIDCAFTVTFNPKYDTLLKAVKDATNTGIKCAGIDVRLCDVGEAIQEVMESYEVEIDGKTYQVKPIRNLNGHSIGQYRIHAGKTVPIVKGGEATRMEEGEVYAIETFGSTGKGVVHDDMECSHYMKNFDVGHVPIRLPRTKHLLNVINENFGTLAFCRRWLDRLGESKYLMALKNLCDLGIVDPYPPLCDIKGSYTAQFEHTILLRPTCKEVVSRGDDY

[3] = biological target: T1, MetAP-2; assay: Degradation of MetAP-2 in HCT116 cells (Western blot, MetAp2/GAPDH signal); format: cell-based; design: endogenous in cells; host or cells: HCT116; conditions: 0.1 μM, 24 hrs, HTC116 cells; <1 means degradation
Experimental: See scans below. […] The initial MetAP-2 degradation results were obtained after 24 h incubation of the compounds in three different concentrations (0.1; 1; 10 μM), cell lysis, SDS-PAGE separation, blotting and antibody aided detection.
Comparison of MetAP2 protein levels in HTC116 cells after compound treatments at different concentrations and time points. As control, DMSO was used and its values set as “1”. MetAp2 values <1 means degradation.
2. Exemplary Testing of the Compound
HCT116 cells were sown in 6-well plates. Pipette 1 mL fresh medium to every well and incubate for at least 1 h (37° C., 5% CO2, 95% rH).
Harvest and count cells in Vi-Cell. Equinr. 70198475 Adjust cell concentration to 0.35e^6 cells/mL and add 1 mL of cell suspension (total 0,35e^6 cells/well).
Incubate cells for 24 hours (37° C., 5% CO2, 95% rH)
HCT116: 24 h: ˜50% confluent before treatment
Compounds will be thawed the first time, stock: 10 mM; final concentration: 10 μM & 1 μM & 0.1 μM
Treatment with DMSO based solution with Digital Dispenser: HCT116 platte 2A1.jpg_meta.xml • create new dispensing protocol for compound • apply name of test compound and its stock concentration (in mM) for testing • 3×1:10 dilution series • final 0.3% DMSO, DMSO normalization for every well • shaking after compound/DMSO addition
Incubate cells for further 24 hours (37° C., 5% C02, 95% rH)
HCT116: 70-80% confluent before lysis • after incubation cells were lysed with RIPA lysis buffer including Halt™
all steps performed on ice or at 4° C. • aspirate supernatant from cells • wash cells twice with 2.0 mL ice cold PBS buffer • aspirate supernatant from cells after each washing step • lyse cells with 100 μL Ripa lysis buffer per well • scrape cells with cell scraper and transfer lysates to Eppendorf Cups • incubate for 15 min on ice • centrifuge […] at 13000×g and 4° C. • transfer supernatants to fresh Eppendorf cups • removal of 20 μL lysate for BCA assay • aliquot and freeze at −20° C.
Determination of protein concentration of lysates with BCA Protein Assay Kit. BSA supplied with the kit is 2 mg/mL.
Dilute the standard (Stock BSA concentration=2 mg/mL) in a 96 well plate: Samples were run 1:4. Dilute in lysing buffer, lysing buffer alone was run to determine the background from detergents in the assay.
BCA reagent: Dilute Reagent A and Reagent B in a 1:50 ratio. To 9.8 mL A add 200 μL B.
Assay Procedure: Pipette 5 μL/well of standard or samples to 96 wells (see plate layout). Samples were run in duplicate. Blanks=5 μL/well PBS or 5 μL/well lysing buffer. Add 100 μL/well of the prepared BCA reagent. Tap plate to mix or shake for 1-2 min on the Eppendorf mixer. Incubate at 37° C. for 30 min.
Read the OD at 562 nm. Plate was read on EnVision 2104 Multilabel Reader (Perkin Elmer, Equipment Number 70160330) last verification of instrument 17.08.2017 (once a year) (A25/531). AEH181012_BCA.csv
In EXCEL the duplicates were averaged and the average background PBS was subtracted for the standard curve.
A trend line was created, the intercept (b) was set at 0. The R^2 should be >0.950 for acceptable results. The lysate buffer blank was subtracted from the test values and the averaged, background-corrected O.D. values were used with the equation to calculate mg/ml and then were corrected for the dilution factor for the final mg/mL value. Only results from OD values within the range of the standard curve are acceptable. Values outside of the standard curve range are ignored. BCA AEH00350 Berechnung.xlsx
6. Sample Calculation and Preparation • thaw lysates of AEH00350 on ice • calculate sample volume for Western Blot loading 10 μg total protein/13 μL per slot: • dilute samples with lysis buffer and 10× reducing agent & 4×LDS buffer to 10 μg. • heat them at 70° C. for 10 min and 1000 rmp
Target sequence in this assay (P50579 whole entry, the tested form may be a part): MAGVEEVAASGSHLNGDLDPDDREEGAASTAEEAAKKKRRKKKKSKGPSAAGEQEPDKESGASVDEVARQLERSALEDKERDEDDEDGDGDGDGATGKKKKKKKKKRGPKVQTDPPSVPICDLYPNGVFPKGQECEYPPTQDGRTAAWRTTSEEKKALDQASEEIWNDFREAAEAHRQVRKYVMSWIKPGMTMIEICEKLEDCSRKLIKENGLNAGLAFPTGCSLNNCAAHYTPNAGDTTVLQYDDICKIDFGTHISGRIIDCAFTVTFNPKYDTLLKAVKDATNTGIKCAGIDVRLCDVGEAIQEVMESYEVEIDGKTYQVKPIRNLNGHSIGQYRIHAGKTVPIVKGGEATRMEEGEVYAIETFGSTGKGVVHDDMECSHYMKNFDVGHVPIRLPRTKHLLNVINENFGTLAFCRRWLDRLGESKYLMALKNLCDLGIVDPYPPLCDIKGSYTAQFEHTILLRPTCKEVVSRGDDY
7. […]

[4] = biological target: T1, MetAP-2; assay: as above; format: cell-based; design: endogenous in cells; host or cells: HCT116; conditions: 0.1 μM, 6 hrs, HTC116 cells; <1 means degradation
Target sequence in this assay (P50579 whole entry, the tested form may be a part): as above

Row | Compound | IC50 [1] [µM] | IC50 [2] [µM] | Signal MetAp2/GAPDH normalized to untreated (DMSO) [3] | Signal MetAp2/GAPDH normalized to untreated (DMSO) [4]
1 | Cc1ncsc1-c1ccc(CNC(=O)[C@@H]2C[C@@H](O)CN2C(=O)[C@@H](NC(=O)CCCCCNC(=O)c2cc3cc(N4CC[C@@](O)(C(=O)NCc5cc(F)cc(F)c5)C4=O)ccc3[nH]2)C(C)(C)C)cc1 (mixture of isomers) [Compound A3, (3RS)—N-[(3,5-difluorophenyl)methyl]-3-hydroxy-1-{2-[(5-{[(2S)-1-[(2S,4R)-4-hydroxy-2-({[4-(4-methyl-1,3-thiazol-5-yl)phenyl]methyl}carbamoyl)pyrrolidin-1-yl]-3,3-dimethyl-1-oxobutan-2-yl]carbamoyl}pentyl)carbamoyl]-1H-indol-5-yl}-2-oxopyrrolidine-3-carboxamide] | 30 | 0.55 |  | 
2 | O=C1CCC(N2C(=O)c3ccc(NCCCCCNC(=O)c4cc5cc(N6CCC(O)(C(=O)NCc7cc(F)cc(F)c7)C6=O)ccc5[nH]4)cc3C2=O)C(=O)N1 (centres unmarked) [Compound A4, 5-[3-[(3,5-difluorophenyl)methylcarbamoyl]-3-hydroxy-2-oxo-pyrrolidin-1-yl]-N-[5-[[2-(2,6-dioxo-3-piperidyl)-1,3-dioxo-isoindolin-5-yl]amino]pentyl]-1H-indole-2-carboxamide] | 1.6 | 0.48 |  | 
3 | O=C1CCC(N2C(=O)c3cccc(NCCOCCOCCNC(=O)c4cc5cc(N6CCC(O)(C(=O)NCc7cc(F)cc(F)c7)C6=O)ccc5[nH]4)c3C2=O)C(=O)N1 (centres unmarked) [Compound A5, 5-[3-[(3,5-difluorophenyl)methylcarbamoyl]-3-hydroxy-2-oxo-pyrrolidin-1-yl]-N-[2-[2-[2-[[2-(2,6-dioxo-3-piperidyl)-1,3-dioxo-isoindolin-4-yl]amino]ethoxy]-ethoxy]ethyl]-1-H-indole-2-carboxamide] | 5.8 | 0.33 |  | 
4 | Cc1ncsc1-c1ccc(CNC(=O)[C@@H]2C[C@@H](O)CN2C(=O)[C@@H](NC(=O)COCCOCCNC(=O)c2cc3cc(N4CCC(O)(C(=O)NCc5cc(F)cc(F)c5)C4=O)ccc3[nH]2)C(C)(C)C)cc1 (stereo partly drawn) [Compound A6, 5-[3-[(3,5-difluorophenyl)methylcarbamoyl]-3-hydroxy-2-oxo-pyrrolidin-1-yl]-N-[2-[2-[2-[[(1S)-1-[(2S,4R)-4-hydroxy-2-[[4-(4-methylthiazol-5-yl)phenyl]methylcarbamoyl]pyrrolidine-1-carbonyl]-2,2-dimethyl-propyl]amino]-2-oxoethoxy]ethoxy]ethyl]-1H-indole-2-carboxamide] | 30 | 0.37 |  | 
5 | Cc1ncsc1-c1ccc(CNC(=O)[C@@H]2C[C@@H](O)CN2C(=O)[C@@H](NC(=O)COCCOCCOCCOCCNC(=O)c2cc3cc(N4CCC(O)(C(=O)NCc5cc(F)cc(F)c5)C4=O)ccc3[nH]2)C(C)(C)C)cc1 (some centres unmarked) [Compound A7] | 7.3 | 0.32 |  | 
6 | Cc1ncsc1-c1ccc(CNC(=O)[C@@H]2C[C@@H](O)CN2C(=O)[C@@H](NC(=O)COCCOCCOCCOCCOCCNC(=O)c2cc3cc(N4CCC(O)(C(=O)NCc5cc(F)cc(F)c5)C4=O)ccc3[nH]2)C(C)(C)C)cc1 (stereo partly drawn) [Compound A8, 5-[3-[(3,5-difluorophenyl)methylcarbamoyl]-3-hydroxy-2-oxo-pyrrolidin-1-yl]-N-[2-[2-[2-[2-[2-[2-[[(1S)-1-[(2S,4R)-4-hydroxy-2-[[4-(4-methylthiazol-5-yl)phenyl]-methylcarbamoyl]pyrrolidine-1-carbonyl]-2,2-dimethyl-propyl]amino]-2-oxoethoxy]ethoxy]ethoxy]ethoxy]ethoxy]ethyl]-1H-indole-2-carboxamide] | 30 | 0.33 |  | 
7 | O=C1CCC(N2C(=O)c3cccc(NCCOCCOCCOCCOCCOCCNC(=O)c4cc5cc(N6CC(O)C(O)(C(=O)NCc7cc(F)cc(F)c7)C6=O)ccc5[nH]4)c3C2=O)C(=O)N1 (centres unmarked) [Compound A21, 5-[3-[(3,5-difluorophenyl)methylcarbamoyl]-3,4-dihydroxy-2-oxo-pyrrolidin-1-yl]-N-[2-[2-[2-[2-[2-[2-[[2-(2,6-dioxo-3-piperidyl)-1,3-dioxo-isoindolin-4-yl]amino]ethoxy]ethoxy]ethoxy]ethoxy]ethoxy]ethyl]-1H-indole-2-carboxamide] |  |  | 1.2 | 1.3

From patent publication US20220062258A1, “Heterocyclic derivatives” (Merck Patent GmbH, priority 2019, published 2022)
